Here are results for three compounds from ChEMBL document CHEMBL3861975, “Discovery and Rational Design of Natural-Product-Derived 2-Phenyl-3,4-dihydro-2H-benzo[f]chromen-3-amine Analogs as Novel and Potent Dipeptidyl Peptidase 4 (DPP-4) Inhibitors for the Treatment of Type 2 Diabetes” (J Med Chem, 2016).

Each structure is given as a SMILES string. Active and inactive are the calls of the source. No cut-off for these calls is given here. A value given as a limit tells only on which side of the number the result lay.

Data set [1] can be described thus: AUC (0 to infinity) in Sprague-Dawley rat at 2 mg/kg, po by LC-MS/MS method. Format: ADME, organism-based. On the set-up: dose 2 mg/kg, route oral, time infinity. Particulars: in vivo.
Data set [2] can be described thus: Mean residence time (0 to infinity) in Sprague-Dawley rat at 1 mg/kg, iv by LC-MS/MS method. Type of data set: ADME, organism-based. Particulars: in vivo.
Data set [3] can be described thus: AUC (0 to t) in Sprague-Dawley rat at 2 mg/kg, po by LC-MS/MS method. Type of data set: ADME, organism-based. Particulars: in vivo.
A short description of data set [4]: Half life in Sprague-Dawley rat at 1 mg/kg, iv by LC-MS/MS method. Format: ADME, organism-based. Particulars: in vivo.
Data set [5] in a line: AUC (0 to infinity) in Sprague-Dawley rat at 1 mg/kg, iv by LC-MS/MS method. Format: ADME, organism-based. On the set-up: dose 1 mg/kg, route intravenous, time infinity. Particulars: in vivo.
Data set [6] is described as follows: AUC (0 to t) in Sprague-Dawley rat at 1 mg/kg, iv by LC-MS/MS method. Format: ADME, organism-based. Particulars: in vivo.
A short description of data set [7]: Half life in Sprague-Dawley rat at 2 mg/kg, po by LC-MS/MS method. Particulars: in vivo. Format: ADME, organism-based.
A short description of data set [8]: Mean residence time (0 to infinity) in Sprague-Dawley rat at 2 mg/kg, po by LC-MS/MS method. Type of data set: ADME, organism-based. Particulars: in vivo.
Data set [9] can be described thus: Volume of distribution at steady state in Sprague-Dawley rat at 1 mg/kg, iv by LC-MS/MS method. Type of data set: ADME, organism-based. Particulars: in vivo, read-out: Vdss.
Data set [10] in a line: Cmax in Sprague-Dawley rat at 2 mg/kg, po by LC-MS/MS method. Format: ADME, organism-based. Details: dose 2 mg/kg, route oral. Particulars: in vivo.
Data set [11] can be described thus: Tmax in Sprague-Dawley rat at 2 mg/kg, po by LC-MS/MS method. Type of data set: ADME, organism-based. Particulars: in vivo.
The nature of data set [12]: Oral bioavailability in Sprague-Dawley rat at 2 mg/kg by LC-MS/MS method. Format: ADME, organism-based. Particulars: in vivo.
Data set [13] in a line: Clearance in Sprague-Dawley rat at 1 mg/kg, iv by LC-MS/MS method. Type of data set: ADME, organism-based. Particulars: in vivo.
For data set [14], the system named is Mus musculus. In words: In-vivo inhibition of DPP4 in B6.V-Lep'ob/Lep'ob (ob/ob) mouse at 3 mg/kg, po administered as single dose using Gly-Pro-AMC as substrate after 24 hrs post dose by continuous fluorometric assay. Type of data set: functional, organism-based.
The species named for data set [15] is Mus musculus. Particulars: ICR, 5 mg/kg.
Description: (§1) In-vivo inhibition of DPP4 in ICR mouse at 5 mg/kg, ip administered as single dose using Gly-Pro-AMC as substrate after 24 hrs post dose by continuous fluorometric assay
Data set [16] is filed under the species Mus musculus. In words: animal or person. Particulars: po, 24 h, read-out: INH.
For data set [17], the system named is Mus musculus. Put plainly: Improvement in glucose tolerance in ICR mouse at 1 to 10 mg/kg, po administered as single dose 60 mins before glucose challenge and measured 30 to 60 mins post glucose challenge by OGTT method. Type of data set: functional, organism-based.
The species entered for data set [18] is Mus musculus. In words: animal or person. Particulars: po, 24 h, read-out: INH. This is another data set of the same source.
Data set [19] is filed under the species Mus musculus. Put plainly: animal or person. Particulars: po, 24 h, read-out: INH. The source holds these as a separate data set.
For data set [20], the species on record is Mus musculus. Particulars: 1 to 10 mg/kg.
The species named for data set [21] is Mus musculus. Put plainly: animal or person. Particulars: ICR, ip, 24 h, read-out: INH.
Description: as §1

One may read the MRT inf as a mean duration of stay, worked out from the concentration-time curve. The term half-life denotes how long it takes for the measured level to halve. Usually Cmax stands for the maximum level reached in the sampled fluid or tissue. The term Tmax denotes the time at which the peak concentration occurs. The term bioavailability denotes dose-corrected exposure relative to a reference, in per cent. Lower therefore signals little systemic uptake. In general, clearance refers to a measure of how efficiently the substance is removed, as volume per time. Read a high clearance as efficient removal. As for `COc1cc2c3c(ccc2cc1S(C)(=O)=O)O[C@H](c1cc(F)c(F)cc1F)[C@@H](N)C3`, the values for the AUC in data set [1] and in data set [5] were 26373.69 µg/L/h and 25460.37 µg/L/h, respectively. The values for the MRT inf in data set [2] and in data set [8] were 7.56 h and 9.05 h, respectively. The figures for the AUCt in data set [3] and in [6] were 26527.6 µg/L/h and 24208.7 µg/L/h, respectively. Besides, the half-life was 5.35 h in data set [4] and 6.83 h in [7]. The Vd in data set [9] was 0.63 L/kg. This compound also gave a Cmax in data set [10] of 2320 ng/mL. The Tmax in data set [11] amounted to 4.67 h. In addition, in data set [12], the bioavailability stood at 54.8%. Moreover, the clearance in [13] is 0.667 mL/min/kg.

Take `CS(=O)(=O)n1cc2c(n1)CN([C@H]1CO[C@H](c3cc(F)ccc3F)[C@@H](N)C1)C2`: the inhibition entry with Mus musculus [14] and in the data set filed under Mus musculus [15] was “Active” throughout.

Regarding `COc1cc2ccc3c(c2cc1OC)C[C@H](N)[C@@H](c1cc(F)c(F)cc1F)O3`, the inhibition in vivo at 1 mg/kg in the data set listed under Mus musculus [16] is greater than 80%. Further, the AUC in [1] is 6091.31 µg/L/h; in data set [5], 3415 µg/L/h. Further, the Activity result in the data set on Mus musculus [17] was “Dose-dependent effect”. The figures for the MRT inf in data set [2] and in [8] were 4.87 h and 6.33 h, respectively. Also, the AUCt in data set [3] worked out at 6052.89 µg/L/h; in data set [6], 3380.54 µg/L/h. Also, the inhibition in vivo at 3 mg/kg in the data set listed under Mus musculus [18] was greater than 80%. Also, the half-life is 3.87 h in data set [4] and 3.05 h in [7]. Also, in data set [9], the Vd stood at 1.66 L/kg. Also, the concentration in data set [10] peaked (Cmax) at 502 ng/mL. Besides, the Tmax in data set [11] is 4.67 h. In data set [12], this compound displayed a bioavailability of 89.2%. Besides, in the data set filed under Mus musculus [19], the inhibition in vivo at 10 mg/kg was greater than 80%. Besides, the inhibition result in the data set filed under Mus musculus [20] is “Dose-dependent effect”. In addition, the inhibition in vivo at 5 mg/kg in the data set filed under Mus musculus [21] is no more than 80%. Further, in [13], the clearance was 5 mL/min/kg.
